From patent publication US20100248272A1, “Method for identifying Smk box riboswitch modulating compounds” (Cornell University, priority 2009, published 2010)
Where “and” joins values, the source holds several entries; their conditions need not be identical. Identical values can stand only once. Entries after “also recorded” stand apart in the source; their conditions may differ.

Legend:
[1] = test system: wild-type 15-118 metK leader RNA (bipartite, 2-AP at A29); assay: Kd measurement by 2-AP fluorescence quenching; type: binding, E. faecalis; details: for quenching of 2-AP fluorescence: wild-type RNA
Method: (§1) FIG. 11. […] Increasing concentrations of SAM were added to bipartite metK leader RNA containing an internal 2-AP modification at residue A29. 2-AP fluorescence at steady-state was measured at 375 nm with an excitation wavelength of 310 nm. […] Percent quenching (ΔF/F0×100) represents the change in fluorescence normalized to the initial fluorescence observed in the absence of SAM.
(§2) For this, a bipartite RNA comprised of two half RNAs was used, which corresponds to positions 15-46 and 47-118. The two RNA halves are predicted to anneal through extensive base pairing in the P1-P3 helices to form the full-length metK leader RNA corresponding to positions 15-118, with a nick immediately upstream of residue G47 at the top of the P3 stein loop.
(§3) A 2-aminopurine (2-AP) modification was incorporated into the upstream RNA at residue A29 to monitor local conformational changes occurring at this position in response to SAM binding using florescence spectroscopy.

SMK box riboswitch = assay: Competition binding assay SAM versus SAH; set-up: species or system E. faecalis; details: >100-fold excess of SAH over SAM
Excerpt: FIGS. 6A, 6B. Effects of SMK box riboswitch mutagenesis on SAM binding and apparent SAM binding constant (Ka) determination. (A) Effects of mutation (with s.d.) on SAM binding by size-exclusion filtration assay, as described. (B) SAM and SAH Kd determination by competition binding assay.
(§4) The Kd value for the full-length SMK transcript was further confirmed by fluorescence-quenching assays, as described below and shown in FIG. 11.

[2] = test system: E. faecalis SMK box C25U G90A double mutant RNA; assay: In vitro SAM binding assay (size-exclusion filtration); details: C25U G90A double mutation
Excerpt: (§5) DNA templates corresponding to positions 15-118 (relative to the predicted transcription start site) of the E. faecalis metK leader were constructed by ligating overlapping pairs of complementary oligonucleotides, including a T7 RNA polymerase promoter sequence, as previously described (M. R. Yousef, et al., RNA, 9, 1148-1156 (2003) and B. A., McDaniel, et al., Mol. Microbiol., 57, 1008-1021 (2005)). Ligated products were amplified by PCR and RNAs were synthesized by T7 RNA polymerase transcription using an AmpliScribe T7 High Yield Transcription Kit (Epicentre Biotechnologies). RNAs (3 μM) in 1× transcription buffer (F. J. Grundy, et al., Nucleic Acids Res., 30, 1646-1655 (2002)) were heated to 65° C. for 5 minutes and slow-cooled to 40° C., followed by addition of radiolabeled SAM (3 μM [methyl-3H]-SAM, 15 Ci mmol^−1; GE Healthcare) in a total reaction volume of 40 μL, Binding reactions were incubated at room temperature (20-25° C.) for 15 minutes followed by passage through a Nanosep 10K Omega filter (Pall Life Sciences) by centrifugation at 14,000 g for 2.5 minutes. Filters were washed four times with 40 μL 1× transcription buffer to remove unbound SAM, and material retained by the filter was collected, mixed with Packard BioScience Ultima Gold scintillation fluid, and counted in a Packard Tri-Carb 2100TR liquid scintillation counter. No SAM was retained by the filter in the absence of RNA.

[3] = test system: E. faecalis SMK box A73G mutant RNA; assay: as above; details: A73G mutation
Excerpt: as §5

[4] = test system: E. faecalis SMK box RNA with poly(A)6 linker and G88 and G89 mutated to adenosine; assay: as above; details: poly(A)6 linker plus G88 and G89 to adenosine
Excerpt: as §5

[5] = test system: E. faecalis SMK box U72C mutant RNA; assay: as above
Excerpt: as §5

[6] = test system: E. faecalis SMK box C76U G88A mutant RNA; assay: as above; details: C76U and G88A combined
Excerpt: as §5

[7] = test system: E. faecalis SMK box U65 deletion mutant RNA; assay: as above
Excerpt: as §5

[8] = test system: E. faecalis SMK box C76U mutant RNA; assay: as above; details: C76U wobble mutation
Excerpt: as §5

[9] = test system: E. faecalis SMK box C24G mutant RNA; assay: as above; details: C24G mutation
Excerpt: as §5

[10] = test system: E. faecalis SMK box C25U mutant RNA; assay: as above
Excerpt: as §5

[11] = test system: E. faecalis SMK box U65C mutant RNA; assay: as above; details: U65C mutation
Excerpt: as §5

[12] = test system: E. faecalis SMK box C24U G91A double mutant RNA; assay: as above; details: C24U G91A double mutation
Excerpt: as §5

[13] = test system: E. faecalis SMK box G26A mutant RNA; assay: as above
Excerpt: as §5

[14] = test system: E. faecalis SMK box RNA with linker region replaced by poly(A)6; assay: as above; details: 11-nt linker replaced with poly(A)6
Excerpt: as §5

[15] = test system: E. faecalis SMK box G90A mutant RNA; assay: as above; details: G90A mutation (C25•A90 mismatch)
Excerpt: as §5

[16] = test system: E. faecalis SMK box G88A mutant RNA; assay: as above; details: G88A mismatch mutation
Excerpt: as §5

[17] = test system: E. faecalis SMK box U22G mutant RNA; details: U22G mutation; cited from earlier work
[18] = test system: U72C mutant metK leader RNA; assay: 2-AP fluorescence quenching; type: binding, E. faecalis; details: SAM concentrations up to 100 μM
Method: as §1, §2, §3

[19] = test system: 30S ribosomal subunit on the SMK box mRNA; assay: Ribosome toeprinting analysis; type: biochemical; details: in the presence of ligand
[20] = target: full-length E. faecalis metK RNA (wild-type 15-118 metK leader sequence); assay: Apparent Kd determination by size-exclusion filtration (modified SAM binding assay); details: full-length transcript, positions 15-118; [3H]-SAM
Method: (§6) The apparent equilibrium dissociation constants (Kd values) for the wild-type 15-118 metK leader sequence and the 53-nucleotide crystallization construct were determined using a modified SAM binding assay (J. Tomsic, et al., J. Bacteriol., 190, 823-833 (2007)). Briefly, T7 RNA polymerase transcribed RNA (1 μM) in 1× transcription buffer was refolded as described above and incubated with [^3H]-SAM ranging in concentration from 0.02 to 10 μM. Binding reactions were loaded onto Nanosep 3K Omega filters (Pall Life Sciences) and centrifuged briefly at 14,000 g to avoid large volume changes. The concentration of the RNA-[^3H]-SAM complex retained by the filter and the unbound SAM present in the flow through were determined by scintillation counting of known volumes, and nonlinear regression analyses were performed using Kaleida-Graph Version 3.51 (Synergy Software). Apparent Kd values represent the averages of at least two independent experiments for each construct with a margin of error≦5%.
as §4

[21] = test system: E. faecalis SMK box A93C mutant RNA; details: A93C mutation; cited from earlier work
[22] = test system: E. faecalis SMK box U22G A93C double mutant RNA; details: cited from earlier work
[23] = target: SMK6 crystallization construct (53-nucleotide SMK box riboswitch); assay: Apparent Kd determination by size-exclusion filtration (modified SAM binding assay); set-up: species or system E. faecalis; details: 53-nt crystallization construct SMK6; [3H]-SAM
Method: as §6, §4

[24] = test system: E. faecalis metK-lacZ fusion WT; details: cells grown in the presence of high methionine concentrations; previously shown; cited from earlier work
[25] = test system: E. faecalis metK-lacZ fusion WT
Method: (§7) In this experiment, in vivo lacZ reporter gene assays were conducted as previously described (R. T. Fuchs, et al., 2006, Ibid. and R. T. Fuchs, et al., 2007, Ibid.). Enterococcus faecalis metK leader region constructs, which included the first 15 nt of the coding region, were positioned downstream of the highly expressed B. subtilis glyQS promoter. The resulting DNA fragment was inserted into a lacZ fusion vector (pFG328) to generate an in-frame metK-lacZ translational fusion in which the first five codons of metK were fused to codon 18 of lacZ. The constructs were introduced into the chromosome of B. subtilis strain BR151 (metB10 lys-3trpC2) by integration into an SPβ prophage. Bacillus subtilis strains containing the lacZ fusions were grown at 37° C. in Spizizen minimal medium containing methionine ([…]) until early exponential growth. The cells were harvested by centrifugation at 8,000 g and resuspended in Spizizen medium either with or without methionine, and samples were collected at 1-h intervals and assayed for β-galactosidase activity after toluene permeabilization of the cells.

[26] = test system: E. faecalis metK-lacZ fusion C24U
Method: as §7

[27] = test system: E. faecalis metK-lacZ fusion C24G
Method: as §7

[28] = test system: E. faecalis metK-lacZ fusion A93C
Method: as §7

[29] = test system: E. faecalis metK-lacZ fusion C25U
Method: as §7

[30] = test system: E. faecalis metK-lacZ fusion C25U + G90A
Method: as §7

[31] = test system: E. faecalis metK-lacZ fusion U22G + A93C
Method: as §7

[32] = test system: E. faecalis metK-lacZ fusion C24U + G91A
Method: as §7

[33] = test system: E. faecalis metK-lacZ fusion U22G
Method: as §7

[34] = Spizizen medium with methionine

Q: Which “quenching of 2-AP fluorescence” value [1] does the source give for `Nc1ncnc2c1ncn2[C@@H]1O[C@H](CSCC[C@H](N)C(=O)O)[C@@H](O)[C@H]1O` [SAH, S-adenosyl-L-homocysteine] here?
A: not observed

Q: What about the “competition by unlabeled SAH” value (SMK box riboswitch) of the same compound?
A: no competition

Q: Which “SAM binding activity” value [2] does the source give for `C[S+](CC[C@H](N)C(=O)[O-])C[C@H]1O[C@@H](n2cnc3c(N)ncnc32)[C@H](O)[C@@H]1O` (some centres unmarked) [SAM, S-adenosyl methionine] here?
A: loss of SAM binding activity

Q: What about the “reduction in SAM binding activity” value [3] of the same compound?
A: 80 fold

Q: What about the “SAM binding” value [4] of the same compound?
A: dramatically reduced

Q: And the “SAM binding in the filtration assay” value ([5]; U72C RNA)?
A: loss of SAM binding

Q: And the “decrease in SAM binding activity” value ([5]; U72C mutation)?
A: 70 fold

Q: And the “SAM binding, of the wild-type level” value [6]?
A: 32%

Q: And the “decrease in SAM binding activity” value [7]?
A: 20 fold

Q: What about the “SAM binding activity retained” value [8] of the same compound?
A: 59%

Q: And the “SAM binding” value [9]?
A: loss of SAM binding

Q: What about the SAM binding activity ([10]; C25U mutation (U25-G90 wobble pair)) of the same compound?
A: 63%

Q: What about the “SAM binding in vitro” value ([10]; C25U substitution) of the same compound?
A: modest reduction

Q: And the “decrease in SAM binding activity” value [11]?
A: 5 fold

Q: And the “SAM binding” value [12]?
A: restored SAM binding

Q: And the “reduction of SAM binding” value [13]?
A: five

Q: What about the “SAM binding activity” value [14] of the same compound?
A: did not affect

Q: What about the “SAM binding activity, of the wild type” value [15] of the same compound?
A: 1.3%

Q: What about the “reduction in SAM binding activity” value [16] of the same compound?
A: 75 fold

Q: What about the “SAM binding in vitro” value [17] of the same compound?
A: loss of SAM binding

Q: What about the “quenching of 2-AP fluorescence” value [18] of the same compound?
A: No quenching; also recorded: no substantial change in fluorescence

Q: What about the “correct positioning of the 30S ribosomal subunit on the SMK box mRNA” value [19] of the same compound?
A: reduced

Q: And the Kd ([1]; 2-AP fluorescence, excitation 310 nm, emission 375 nm, read-out: apparent Kd)?
A: 1030 nM and 1000 nM

Q: What about the “quenching of 2-AP fluorescence” value [1] of the same compound?
A: concentration-dependent quenching

Q: And the Kd [20]?
A: 850 nM

Q: What about the “SAM binding in vitro” value [21] of the same compound?
A: loss of SAM binding

Q: What about the “SAM binding” value [22] of the same compound?
A: restores SAM binding

Q: What about the Kd [23] of the same compound?
A: 570 nM

Q: For `CSCC[C@H](N)C(=O)O` [Met, methionine], which “reduction in expression of lacZ reporter” value [24] is on record?
A: five

Q: What about the “Ratio (−Met/+Met)” value [25] of the same compound?
A: 5.0

Q: And the “Expression of metK-lacZ fusion, +Met (β-galactosidase activity)” value (shortened to “Expression of metK-lacZ fusion, +Met”) [25, 34]?
A: 24 +/− 5.5

Q: What about the “Ratio (−Met/+Met)” value [26] of the same compound?
A: 1.6

Q: And the “Expression of metK-lacZ fusion, +Met” value [26, 34]?
A: 200 +/− 22

Q: What about the “Ratio (−Met/+Met)” value [27] of the same compound?
A: 1.2

Q: What about the “Expression of metK-lacZ fusion, +Met” value [27, 34] of the same compound?
A: 95 +/− 6.1

Q: What about the “Ratio (−Met/+Met)” value [28] of the same compound?
A: 1.8

Q: What about the “Expression of metK-lacZ fusion, +Met” value [28, 34] of the same compound?
A: 42 +/− 1.0

Q: And the “Ratio (−Met/+Met)” value [29]?
A: 2.8

Q: What about the “Expression of metK-lacZ fusion, +Met” value [29, 34] of the same compound?
A: 80 +/− 5.0

Q: And the “Ratio (−Met/+Met)” value [30]?
A: 0.95

Q: And the “Expression of metK-lacZ fusion, +Met” value [30, 34]?
A: 82 +/− 16

Q: And the “Ratio (−Met/+Met)” value [31]?
A: 4.4

Q: What about the “Expression of metK-lacZ fusion, +Met” value [31, 34] of the same compound?
A: 2.5 +/− 0.72

Q: What about the “Ratio (−Met/+Met)” value [32] of the same compound?
A: 1.5

Q: And the “Expression of metK-lacZ fusion, +Met” value [32, 34]?
A: 15 +/− 2.9

Q: And the “Ratio (−Met/+Met)” value [33]?
A: 1.4

Q: And the “Expression of metK-lacZ fusion, +Met” value [33, 34]?
A: 160 +/− 13
